Some results are limits rather than exact numbers.

Assay [1] addresses T1, Recombinant human TDO comprising amino acids 19-407 (Homo sapiens, UniProt P48775).
T1 construct: human TDO comprising amino acids 19-407; hexahistidine (N); made in house; host or cells: E. coli
In words: TDO2 enzymatic assay (NFK quantified by LCMS). Format: biochemical. The settings on record: 15 nM enzyme, 200 μM L-tryptophan, 30 min pre-incubation, pH7; mean if measured multiple times; read-out: hTDO activity (IC50 in nM). Summed up: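 E. coli-expressed N-terminal His-tagged TDO (15 nM) in pH 7 phosphate buffer with ascorbate and catalase, preincubated 30 min at RT with compound (10 μM to 0.5 nM, 0.6% DMSO). Reaction started with 200 μM L-tryptophan for 30 min at RT; NFK measured by LCMS against deuterated internal standard, IC50 by four-parameter fit, duplicates.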

Assay [2] has as its target T2, Recombinant full-length human IDO1 (Homo sapiens, UniProt P14902).
T2 construct: Recombinant full-length human IDO1 with a N-terminal hexahistidine tag; hexahistidine (N); made in house; host or cells: E. coli
The assay is described as follows: IDO1 enzymatic assay (NFK quantified by LCMS). The settings on record: 2 nM enzyme, 5 μM L-tryptophan, 30 min pre-incubation, pH6.5; mean if measured multiple times; read-out: hIDO activity (IC50 in nM). Format: biochemical. Summed up: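 His-tagged full-length IDO1 (E. coli, 2 nM final) in pH 6.5 phosphate with ascorbate, methylene blue and catalase was preincubated 30 min at RT with compound (10 µM–0.5 nM, 0.6% DMSO), then run 30 min at RT with 5 µM L-Trp. NFK was measured by LCMS against a d5-Trp standard. IC50 came from a four-parameter fit of duplicates.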

For the next assay, the target named is T3, IDO1 in SKOV3 cells (Homo sapiens, UniProt P14902).
T3 construct: SKOV3 cells (NCI, No. 0503405) which upregulate IDO1 after stimulation with IFNγ; host or cells: SKOV3 cells stimulated with IFNγ
The assay is described as follows: Cell-based IDO inhibitory activity in IFNγ-stimulated SKOV3 cells (NFK + kynurenine by LCMS). As to conditions: IFNγ 50 ng/ml, 200 uM L-tryptophan, 24 hours. The gist of the method: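 SKOV3 cells (4000/well, pre-cultured 24 h) were treated with compound (10 uM-40 nM) plus 200 uM L-tryptophan and 50 ng/ml IFNγ for 24 h at 37° C. N-formylkynurenine plus kynurenine in supernatant was measured by LCMS against a d5-tryptophan internal standard. IC50 was fitted against 0.2% DMSO and reference-inhibitor controls, in duplicate, with repeat measurements averaged.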

T2 sequence (P14902 whole entry): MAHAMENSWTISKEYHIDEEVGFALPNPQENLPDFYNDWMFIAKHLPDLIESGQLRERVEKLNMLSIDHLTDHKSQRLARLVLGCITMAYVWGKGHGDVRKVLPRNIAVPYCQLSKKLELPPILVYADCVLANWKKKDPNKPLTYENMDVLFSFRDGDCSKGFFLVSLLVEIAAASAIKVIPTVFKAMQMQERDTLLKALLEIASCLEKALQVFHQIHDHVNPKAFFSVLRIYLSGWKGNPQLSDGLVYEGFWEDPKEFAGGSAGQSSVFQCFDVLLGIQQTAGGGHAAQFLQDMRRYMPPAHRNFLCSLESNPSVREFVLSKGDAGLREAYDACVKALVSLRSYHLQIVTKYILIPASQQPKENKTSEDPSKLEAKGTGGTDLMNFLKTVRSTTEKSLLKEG
T3 sequence (P14902 whole entry): as above
T1 sequence (P48775 19-406 limits assumed): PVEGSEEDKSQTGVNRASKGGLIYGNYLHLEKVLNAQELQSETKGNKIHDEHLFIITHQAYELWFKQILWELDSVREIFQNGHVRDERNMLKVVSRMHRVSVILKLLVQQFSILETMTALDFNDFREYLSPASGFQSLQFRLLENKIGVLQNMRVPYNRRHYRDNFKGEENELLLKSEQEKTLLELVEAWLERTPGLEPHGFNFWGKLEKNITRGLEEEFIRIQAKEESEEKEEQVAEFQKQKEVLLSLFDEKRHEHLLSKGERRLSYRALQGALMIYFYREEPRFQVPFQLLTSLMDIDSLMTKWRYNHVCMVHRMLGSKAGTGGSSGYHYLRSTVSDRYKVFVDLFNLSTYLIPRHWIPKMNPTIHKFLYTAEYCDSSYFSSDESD

Take `COc1ccc(-n2cc(C(O)c3c(C4CC4)ncc4cncn34)nn2)cc1Cl` (racemic) [Example 11, rac-[1-(3-Chloro-4-methoxy-phenyl)-1H-[1,2,3]triazol-4-yl]-(6-cyclopropyl-imidazo[1,5-a]pyrazin-5-yl)-methanol]: the half-inhibitory concentration (IC50) (in general, the midpoint of a concentration-inhibition curve) in assay [1] is above 10200 nM; in assay [2], 12.5 nM; on IDO1 in SKOV3 cells, 37.1 nM.
Consider `OC(c1cn(-c2ccccc2)nn1)c1c(Cl)ccc2cncn12` (racemic) [Example 1, rac-(6-Chloro-imidazo[1,5-a]pyridin-5-yl)-(1-phenyl-1H-[1,2,3]triazol-4-yl)-methanol], for which the half-maximal inhibitory concentration (IC50) in assay [1] is above 10200 nM; in assay [2], 9.6 nM; at IDO1 in SKOV3 cells it was 246 nM.
For `Oc1ccc(-n2cc([C@H](O)c3c(C4CC4)ncc4cncn34)nn2)cc1Cl` [Example 10a, 2-Chloro-4-{4-[(R)-(6-cyclopropyl-imidazo[1,5-a]pyrazin-5-yl)-hydroxy-methyl]-[1,2,3]triazol-1-yl}-phenol], in that order: above 10200 nM, 2.93 nM and 12.5 nM.
For `COc1ccc(-n2cc([C@H](O)c3c(C4CC4)ncc4cncn34)nn2)cc1Cl` [Example 11a, (R)-[1-(3-Chloro-4-methoxy-phenyl)-1H-[1,2,3]triazol-4-yl]-(6-cyclopropyl-imidazo[1,5-a]pyrazin-5-yl)-methanol] the same measures were above 10200 nM, 8.17 nM and 23.7 nM.
For `Cc1ccc2cncn2c1C(O)c1cn(-c2ccccc2)nn1` (racemic) [Example 2, rac-(6-Methyl-imidazo[1,5-a]pyridin-5-yl)-(1-phenyl-1H-[1,2,3]triazol-4-yl)-methanol], in that order: above 10200 nM, 6.17 nM and 225 nM.
As for `OC(c1cn(-c2ccccc2)nn1)c1c(C2CC2)ncc2cncn12` (racemic) [Example 3, rac-(6-Cyclopropyl-imidazo[1,5-a]pyrazin-5-yl)-(1-phenyl-1H-[1,2,3]triazol-4-yl)-methanol], the IC50 in assay [1] was above 10200 nM; in assay [2], 41 nM; on IDO1 in SKOV3 cells it was 470 nM.
For `Oc1ccc(-n2cc(C(O)c3c(C4CC4)ncc4cncn34)nn2)cc1` (racemic) [Example 15, rac-4-{4-[(6-Cyclopropyl-imidazo[1,5-a]pyrazin-5-yl)-hydroxy-methyl]-[1,2,3]triazol-1-yl}-phenol], the results for the IC50 (in assay [1]; in assay [2]; at IDO1 in SKOV3 cells) were 9610 nM, 13.1 nM and 208 nM, respectively.
For `CCc1c(C(O)c2c(Cl)ccc3cncn23)nnn1-c1ccc(OC)cc1` (racemic) [Example 37, rac-(6-Chloro-imidazo[1,5-a]pyridin-5-yl)-[5-ethyl-1-(4-methoxy-phenyl)-1H-[1,2,3]triazol-4-yl]-methanol], in that order: 6640 nM, 5.28 nM and 39 nM.
On to `Cc1ccc2cncn2c1[C@@H](O)c1cn(-c2ccccc2)nn1` [Example 2a, (R)-(6-Methyl-imidazo[1,5-a]pyridin-5-yl)-(1-phenyl-1H-[1,2,3]triazol-4-yl)-methanol], for which the IC50 was above 10200 nM in assay [1], 4.29 nM in assay [2] and 84.9 nM on IDO1 in SKOV3 cells.
For `Oc1ccc(-n2cc(C(O)c3c(C4CC4)ccc4cncn34)nn2)cc1Cl` (racemic) [Example 7, rac-2-Chloro-4-{4-[(6-cyclopropyl-imidazo[1,5-a]pyridin-5-yl)-hydroxy-methyl]-[1,2,3]triazol-1-yl}-phenol], in that order: above 10200 nM, 3.77 nM and 6.12 nM.
For `Nc1ccc(-n2cc([C@H](O)c3c(C4CC4)ncc4cncn34)nn2)cc1` [Example 41, (R)-[1-(4-Amino-phenyl)-1H-[1,2,3]triazol-4-yl]-(6-cyclopropyl-imidazo[1,5-a]pyrazin-5-yl)-methanol], in that order: above 10200 nM, 17.5 nM and 212 nM.

Values taken from patent US20220259212A1, “INHIBITORS OF INDOLEAMINE 2,3-DIOXYGENASE AND/OR TRYPTOPHAN 2,3-DIOXYGENASE” (Idorsia Pharmaceuticals Ltd, priority 2019, published 2022).
